The text below walks through data of patent US20230049952A1, “METHODS AND COMPOUNDS FOR RESTORING MUTANT P53 FUNCTION” (PMV Pharmaceuticals, Inc., priority 2020, published 2023).

Several values for one entry are separate records, joined by “and”; a condition that tells them apart may be missing. Equal values may be shown once.

Data set [1] in a line: in vitro. How it is done:
All working solutions were freshly prepared similarly as described for the test article working solution.
Assay for determining Blood to plasma ratio: Pooled male CD-1 mouse, Sprague-Dawley rat, beagle dog and cynomolgus monkey plasma, and mixed gender human blood with EDTAK2 as anticoagulant were stored on wet ice and used the same day. […] After mixing thoroughly, 0.6 mL of spiked blood was transferred to a 96-well plate in triplicate. Concurrently, control compounds were spiked into each species blood in the same fashion to generate the final concentration of 2.0 μM.
The rest of the spiked blood samples were immediately placed into a humidified incubator with 5% CO2 at 37° C., with constant swiveling at 500 rpm for 60 min on a platform shaker. […] The T60-plasma samples for analysis were obtained by taking 50 μL of plasma from each well, mixed with 50 μL of blank blood and 100 μL of water, followed by addition of 600 μL stop solution. […] All the T0, T60-blood and T60-plasma samples were shaken vigorously at 800 rpm for 30 min followed by the centrifugation at 3220×g at 20° C. for 20 min. 100 μL aliquot of supernatant was diluted with 100 μL of water and mixed well for LC-MS/MS analysis.
Measurement of Hematocrit: The hematocrit (the volume percentage of erythrocytes in blood) was determined in triplicate for each species by centrifuging the blood samples with a HAEMATOKRIT 200 at 9440×g for 5 min.
Data analysis: The ratio of compound concentrations in whole blood over plasma (KB/P) and % Recovery in blood were calculated by the following equations: KB/P=[…]([T60-blood]/[T60-plasma]), where [T60-blood] is the peak area ratios of analyte/internal standard in whole blood sample at 60 min; [T60-plasma] is the peak area ratios of analyte/internal standard in plasma sample at 60 min; [T0-blood] is the peak area ratios of analyte/internal standard in whole blood sample at time zero.

For another data set, the target named is CYP3A (Homo sapiens, UniProt P08684). In words: in vitro. The conditions noted are these: both, microsomes, pH 7.4, % of Control Enzyme Activity, HLM; for activity at 10 min, 0.037 µM: 0.0370 μM.
Data set [2] deals with CYP2B6. In words: CYP induction in human hepatocytes (mRNA and enzyme activity). The conditions noted are these: for % Induction Relative to Positive Control / Fold-Change: CYP2B6 enzyme activity, control article.
In data set [3] the target is T1, CYP2B6 (Homo sapiens, UniProt P20813).
T1 sequence (P20813 1-491): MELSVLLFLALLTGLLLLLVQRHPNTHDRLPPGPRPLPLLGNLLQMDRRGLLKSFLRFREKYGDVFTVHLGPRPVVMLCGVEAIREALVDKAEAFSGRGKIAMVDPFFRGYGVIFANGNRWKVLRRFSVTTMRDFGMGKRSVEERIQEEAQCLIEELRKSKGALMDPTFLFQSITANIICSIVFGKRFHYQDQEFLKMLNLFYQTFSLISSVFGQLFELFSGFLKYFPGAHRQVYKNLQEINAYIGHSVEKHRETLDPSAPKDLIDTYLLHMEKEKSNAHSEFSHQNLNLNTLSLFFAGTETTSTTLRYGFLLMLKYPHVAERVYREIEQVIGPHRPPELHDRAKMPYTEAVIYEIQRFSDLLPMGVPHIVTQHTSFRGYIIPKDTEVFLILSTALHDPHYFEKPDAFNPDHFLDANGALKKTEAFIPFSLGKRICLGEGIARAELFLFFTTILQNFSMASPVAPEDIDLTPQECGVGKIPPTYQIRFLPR
The experiment in a line: time-dependent CYP inhibition in human liver microsomes (IC50 shift). The conditions noted are these: both, pooled human liver microsomes, pH 7.4, % of Control Enzyme Activity; for activity at 20 min, 0.37 µM: 0.370 μM.

For data set [4], the target named is T1, CYP2B6. In words: CYP inhibition in human liver microsomes. The format is in vitro ADME. On the set-up: from tissue; host or cells: pooled human liver microsomes, 200 donors. As to conditions: both sexes, pooled human liver microsomes, pH 7.4, HLM, read-out: % of Control Enzyme Activity. Here is the method:
The HLMs were stored at −80° C. until use.
Negative (vehicle) controls were conducted without a test article.
In general terms: Liver microsomes are a subcellular fraction often used to study metabolism.

A further data set addresses CYP2C9 (Homo sapiens, UniProt P11712). The experiment in a line: in vitro. The conditions noted are these: both, microsomes, pH 7.4, % of Control Enzyme Activity.
Another data set deals with P-GP (Homo sapiens, UniProt P08183). In words: in vitro. The conditions noted are these: pH 7.4.
Data set [5] in a line: in vitro. As to conditions: male, plasma. How it is done:
Studies were carried out in mixed-gender human plasma, male Sprague-Dawley rat plasma, male CD-1 mouse plasma, male Beagle dog plasma, and male Cynomolgus monkey plasma collected on sodium heparin. A Rapid Equilibrium Dialysis (RED) device was used for all experiments. […] Blank PBS (500 μL) was added to each corresponding receiver chamber. The device was then placed into an enclosed heated rocker that was pre-warmed to 37° C., and allowed to incubate for four hours. After 4 hours of incubation, both sides were sampled.
Aliquots (50 μL for donor, 200 μL for receiver) were removed from the chambers and placed into a 96-well plate. Plasma (50 μL) was added to the wells containing the receiver samples, and 200 μL of PBS was added to the wells containing the donor samples. Two volumes of acetonitrile were added to each well, and the plate was mixed and then centrifuged at 3,000 rpm for 10 minutes. Aliquots of the supernatant were removed, and analyzed by LCMS/MS. Calibration standards were prepared in a matched matrix and prepared similarly to the assay samples. Binding and recovery values were calculated as follows: % Bound=[(Concentration in Donor−Concentration in Receiver)/(Concentration in Donor)]×100; % Recovery=[(Concentration in Donor+Concentration in Receiver)/(Nominal Dosing Concentration)]×100.

Chain of CYP3A (P08684 2-503): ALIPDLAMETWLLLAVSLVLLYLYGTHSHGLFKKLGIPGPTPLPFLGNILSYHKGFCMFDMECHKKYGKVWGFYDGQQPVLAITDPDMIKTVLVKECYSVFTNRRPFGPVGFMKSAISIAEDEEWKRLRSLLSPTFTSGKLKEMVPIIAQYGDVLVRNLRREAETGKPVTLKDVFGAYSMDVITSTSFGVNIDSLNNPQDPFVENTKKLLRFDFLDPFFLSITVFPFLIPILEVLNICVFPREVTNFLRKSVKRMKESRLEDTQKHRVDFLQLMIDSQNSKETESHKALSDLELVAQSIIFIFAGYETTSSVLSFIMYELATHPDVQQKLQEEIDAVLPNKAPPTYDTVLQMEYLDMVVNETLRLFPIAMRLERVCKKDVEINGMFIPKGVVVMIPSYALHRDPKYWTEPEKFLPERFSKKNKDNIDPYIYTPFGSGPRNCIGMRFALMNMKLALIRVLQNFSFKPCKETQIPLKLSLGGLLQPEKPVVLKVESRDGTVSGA
Chain of CYP2C9 (P11712 whole entry): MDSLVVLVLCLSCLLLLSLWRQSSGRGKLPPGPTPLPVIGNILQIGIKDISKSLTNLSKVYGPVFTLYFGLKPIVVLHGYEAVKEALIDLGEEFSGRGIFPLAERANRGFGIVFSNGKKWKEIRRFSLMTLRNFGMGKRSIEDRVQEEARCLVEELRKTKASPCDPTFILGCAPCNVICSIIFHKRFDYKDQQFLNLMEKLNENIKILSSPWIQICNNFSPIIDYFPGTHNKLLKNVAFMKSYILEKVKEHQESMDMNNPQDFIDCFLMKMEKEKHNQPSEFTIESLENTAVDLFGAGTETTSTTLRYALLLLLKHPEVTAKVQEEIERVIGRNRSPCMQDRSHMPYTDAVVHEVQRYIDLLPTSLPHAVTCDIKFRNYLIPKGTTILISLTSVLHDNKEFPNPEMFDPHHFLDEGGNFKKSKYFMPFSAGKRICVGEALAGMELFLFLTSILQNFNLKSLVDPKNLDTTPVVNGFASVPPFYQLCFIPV
Chain of P-GP (P08183 whole entry): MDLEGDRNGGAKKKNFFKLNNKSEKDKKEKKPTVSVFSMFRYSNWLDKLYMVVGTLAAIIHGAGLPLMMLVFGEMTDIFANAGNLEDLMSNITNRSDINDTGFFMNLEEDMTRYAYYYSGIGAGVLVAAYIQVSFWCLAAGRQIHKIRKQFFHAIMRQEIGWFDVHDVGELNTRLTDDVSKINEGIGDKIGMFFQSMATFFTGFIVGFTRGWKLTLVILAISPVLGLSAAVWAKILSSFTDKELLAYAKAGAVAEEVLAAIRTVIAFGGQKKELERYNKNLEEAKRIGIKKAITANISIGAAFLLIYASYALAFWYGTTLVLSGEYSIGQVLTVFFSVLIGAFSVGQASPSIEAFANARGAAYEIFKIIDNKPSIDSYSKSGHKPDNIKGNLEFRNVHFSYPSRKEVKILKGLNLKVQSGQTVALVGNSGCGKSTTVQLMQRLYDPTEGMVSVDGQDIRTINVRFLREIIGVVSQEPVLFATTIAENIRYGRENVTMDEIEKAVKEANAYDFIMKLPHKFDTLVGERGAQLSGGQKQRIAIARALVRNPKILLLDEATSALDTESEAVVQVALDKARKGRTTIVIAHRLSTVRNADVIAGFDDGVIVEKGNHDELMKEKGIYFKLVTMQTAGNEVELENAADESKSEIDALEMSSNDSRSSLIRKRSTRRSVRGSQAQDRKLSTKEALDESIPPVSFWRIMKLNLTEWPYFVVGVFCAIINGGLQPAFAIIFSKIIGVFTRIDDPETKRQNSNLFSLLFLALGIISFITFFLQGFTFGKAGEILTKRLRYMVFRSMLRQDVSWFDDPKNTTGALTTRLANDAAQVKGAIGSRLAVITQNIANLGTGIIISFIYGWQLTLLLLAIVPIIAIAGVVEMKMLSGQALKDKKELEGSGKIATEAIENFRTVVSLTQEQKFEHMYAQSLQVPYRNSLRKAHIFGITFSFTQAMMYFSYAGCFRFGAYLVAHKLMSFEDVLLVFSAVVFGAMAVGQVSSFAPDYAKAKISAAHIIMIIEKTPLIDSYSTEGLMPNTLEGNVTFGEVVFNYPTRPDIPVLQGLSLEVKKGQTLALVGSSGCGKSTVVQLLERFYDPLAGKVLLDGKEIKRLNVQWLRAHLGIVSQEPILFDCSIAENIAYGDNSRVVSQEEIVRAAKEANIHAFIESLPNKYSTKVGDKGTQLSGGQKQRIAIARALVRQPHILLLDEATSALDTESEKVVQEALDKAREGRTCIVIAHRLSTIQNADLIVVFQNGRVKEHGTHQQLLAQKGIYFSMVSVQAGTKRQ

For the molecule `CCN(CC)CCCC(C)Nc1ccnc2cc(Cl)ccc12` (stereo not shown) [Chloroquine, chloroquine], the recovery at 60 min, 2 μM in the data set “in vitro [1]” (both, human) is 90.8 ± 6.07%; in the data set “in vitro [1]” (male, CD-1, mouse), 99.4 ± 1.7%; in the data set “in vitro [1]” (male, Sprague-Dawley, rat) it was 100 ± 1.86%; in “in vitro [1]” (male, beagle, dog), 113 ± 3.57%; in the data set “in vitro [1]” (male, cynomolgus monkey), 96.9 ± 1.83%.

As for `CC(=O)N1CCN(c2ccc(OCC3COC(Cn4ccnc4)(c4ccc(Cl)cc4Cl)O3)cc2)CC1` (stereo not shown) [Ketoconazole, ketoconazole], at CYP3A (Midazolam probe), the activity at 10 min, 0.0123 µM amounted to 74.5%; the activity at 10 min, 0.037 µM amounted to 49.9%; the activity at 10 min, 3 µM is 5.38%. At CYP3A (Testosterone probe), the activity at 10 min, 0.0123 µM is 58.4%; the activity at 10 min, 0.037 µM was found to be 32.9%; the activity at 10 min, 3 µM was 1.56%. In addition, the activity at 10 min, 0.333 µM at CYP3A (Testosterone probe, 0.333 μM) was 6.75%. Also, the activity at 10 min, 1 µM on CYP3A (Testosterone probe, 1.00 μM) is 3.54%.

Take `CCC1(c2ccccc2)C(=O)NC(=O)NC1=O` [PB, phenobarbital]: the “% Induction Relative to Positive Control” value in the data set with CYP2B6 [2] (Donor 1), in the data set on CYP2B6 [2] (Donor 2) and with CYP2B6 [2] (Donor 3) was 100% each time. Also, the Fold-Change was determined as 6.84 with CYP2B6 [2] (Donor 1), 8.56 with CYP2B6 [2] (Donor 2) and 3.36 in the data set with CYP2B6 [2] (Donor 3). Moreover, the “CYP2B6 mRNA % Induction Relative to Positive Control” value in the data set with CYP2B6 [2] (Donor 1, 1000 μM) was found to be 100%; in the data set with CYP2B6 [2] (Donor 2, 1000 μM) it was 100%; in the data set with CYP2B6 [2] (Donor 3, 1000 μM), 100%. Moreover, the “CYP2B6 mRNA Fold Change (n = 3) Mean” value with CYP2B6 [2] (Donor 1, 1000 μM) was determined as 24.4; with CYP2B6 [2] (Donor 2, 1000 μM), 793; in the data set with CYP2B6 [2] (Donor 3, 1000 μM), 6.85. Also, in the data set with CYP2B6 [2] (donor 2, positive control), the “CYP2B6 mRNA fold increase (positive control)” value was 793 fold.

Regarding `S=P(N1CC1)(N1CC1)N1CC1` [Thio-TEPA], the activity at 20 min, 0.37 µM at CYP2B6 [3] (pre-incubation 30 min +NADPH) came to 86.4%; on CYP2B6 [3] (pre-incubation 30 min −NADPH) it was 92.5%; on CYP2B6 [4] (0.370 μM) it was 97.3%. Also, the figures for the activity at 20 min, 3.33 µM on CYP2B6 [3] (pre-incubation 30 min +NADPH), at CYP2B6 [3] (pre-incubation 30 min −NADPH) and at CYP2B6 [4] (3.33 μM) were 37.6%, 78.5% and 69.7%, respectively. In addition, the activity at 20 min, 10 µM on CYP2B6 [3] (pre-incubation 30 min +NADPH) was 18%; on CYP2B6 [3] (pre-incubation 30 min −NADPH), 58.6%; at CYP2B6 [4] (10.0 μM), 44.3%. In addition, the activity at 20 min, 30 µM on CYP2B6 [3] (pre-incubation 30 min +NADPH) was 11.7%; on CYP2B6 [3] (pre-incubation 30 min −NADPH) it was 41.4%; at CYP2B6 [4] (30.0 μM), 25.6%. In addition, at CYP2B6 [4] (0.123 μM), the activity at 20 min, 0.123 µM is 97%.

With `O=C(O)COc1ccc(C(=O)c2cccs2)c(Cl)c1Cl` [Tienilic acid], at CYP2C9, the activity at 20 min, 0.123 µM turned out to be 96.5%; the activity at 20 min, 0.37 µM was 80.1%; the activity at 20 min, 3.33 µM was found to be 32.8%; the activity at 20 min, 30 µM worked out at 8.14%. Further, at CYP2C9, the activity at 20 min, […] was 101% and 57.4%; the activity at 30 min, 0.123 µM was found to be 74.4%; the activity at 30 min, 0.37 µM was found to be 36.8%; the activity at 30 min, 3.33 µM was 9.24%. Also, the activity at 30 min, 30 µM at CYP2C9 worked out at 3.84%.

In the case of `C/C=C/C[C@@H](C)C(=O)[C@H]1C(=O)N[C@@H](C(C)C)C(=O)N(C)CC(=O)N(C)[C@@H](CC(C)C)C(=O)N[C@@H](C(C)C)C(=O)N(C)[C@@H](CC(C)C)C(=O)N[C@@H](C)C(=O)N[C@H](C)C(=O)N(C)[C@@H](CC(C)C)C(=O)N(C)[C@@H](CC(C)C)C(=O)N(C)[C@@H](C(C)C)C(=O)N1C` [Valspodar, valspodar], the inhibition at 120 min, 1 µM at P-GP was determined as 100%.

As to `CC(=O)CC(c1ccccc1)c1c(O)c2ccccc2oc1=O` (stereo not shown) [Warfarin, warfarin], the fraction unbound at 4 h, 10 μM in “in vitro [5]” (Beagle, dog, % Bound Mean) is 0.026; in the data set “in vitro [5]” (Beagle, dog, % Bound R1-R3), 0.027; in the data set “in vitro [5]” (CD-1, mouse, % Bound Mean), 0.217; in the data set “in vitro [5]” (CD-1, mouse, % Bound R1-R3), 0.226; in the data set “in vitro [5]” (monkey, % Bound Mean), 0.006; in the data set “in vitro [5]” (monkey, % Bound R1-R3) it was 0.007.

Usually inhibition stands for the relative decrease from the control value, in per cent. For orientation: fraction unbound means the share of the substance not bound to proteins or other matrix.
